{
  "source": "patent US20110098267A1",
  "about": "“TOPICAL FORMULATIONS FOR THE TREATMENT OF PSORIASIS” (Synta Pharmaceuticals Corporation, priority 2008, published 2011)",
  "key": {"IL-10": {"system": "IL-10", "test": "TaqMan RT-PCR gene expression in skin biopsies, clinical psoriasis study", "assay_type": "in vivo, human", "details": "lesional psoriatic skin biopsies of patients, week 2 vs pre-treatment (wk0), oral dosing", "experimental": "(§1) A multicenter, randomized, open-label, multiple oral dose outpatient study was done in patients with moderate to severe chronic plaque psoriasis. Patients received Compound 5021 mg or 35 mg orally twice daily (BID), 35 mg or 70 mg orally once per day (QD). Patients remained on study medication for a period of 12 weeks.\n(§2) Lesional and nonlesional skin biopsies were collected from adults with chronic plaque-type psoriasis before and after treatment with Compound 50. The biopsies were processed using the QIAGEN RNeasy kit. Using a rotor-stator tissue homogenizer (saw-tooth rotor; PowerGen 700), frozen specimens were homogenized in buffer (RLT; QIAGEN) for 30-60 s and spun in a microcentrifuge for 3 min at room temperature to pellet debris. The supernatant was loaded onto a QIAGEN minicolumn and spun for 15s at high speed. A series of washes and DNase digestion was followed by final elution of RNA from the column. RNA was quantitated by UV spectrophotometry. The primers and probes for the TaqMan RT-PCR assays for IL-12/23 p40, IL-23 p19, and IL-10 were generated using the Primer Express algorithm version 1.0 from published sequences (National Center for Biotechnology Information). All primers and probes were synthesized by Applied Biosystems-PerkinElmer. RT-PCR reactions were performed according to the manufacturer's directions (EZ PCR Core Reagents; TaqMan and Applied Biosystems). The human acidic ribosomal protein gene (hARP), a housekeeping gene, was used to normalize each sample and each gene.\n(§3) Gene expression levels at week 2 (wk2) were compared to pre-treatment levels in lesional psoriatic skin (wk0). […] In the same biopsy samples, an increase in mRNA IL-10, an anti-inflammatory cytokine, was observed (FIG. 1C)."}, "IL-23 p19": {"system": "IL-23 p19", "test": "TaqMan RT-PCR gene expression in skin biopsies, clinical psoriasis study", "assay_type": "in vivo, human", "details": "lesional psoriatic skin biopsies of patients, week 2 vs pre-treatment (wk0), oral dosing, normalized to hARP", "experimental": "as §1, §2, §3"}, "IL-12/23 p40": {"system": "IL-12/23 p40", "test": "TaqMan RT-PCR gene expression in skin biopsies, clinical psoriasis study", "assay_type": "in vivo, human", "details": "lesional psoriatic skin biopsies of patients, week 2 vs pre-treatment (wk0), oral dosing, normalized to hARP", "experimental": "as §1, §2, §3"}, "[1]": {"system": "CD11c+ cells (dendritic cells)", "test": "Immunohistochemistry cell counts in skin biopsies, clinical psoriasis study", "assay_type": "in vivo, human", "experimental": "as §1\n(§4) Tissue sections of skin biopsies were stained with hematoxylin (Fisher) and eosin (Shandon, Pittsburgh) and purified mouse anti-human mAbs to K16 (Sigma), CD3 (Becton Dickinson), CD11c (BD Pharmingen). Biotin-labeled horse anti-mouse antibody (Vector Laboratories) was amplified with avidin-biotin complex (Vector Laboratories) and developed with chromogen 3-amino-9-ethylcarbazole (Sigma Aldrich). Epidermal thickness measures were computed by using National Institutes of Health software (NIH IMAGE 6.1), and positive cells were counted manually by using computer-assisted image analysis."}, "CD3+ cells": {"system": "CD3+ cells", "test": "Immunohistochemistry cell counts in skin biopsies, clinical psoriasis study", "assay_type": "in vivo, human", "details": "week 12, patients receiving 70 mg once a day", "experimental": "as §1, §4"}, "[2]": {"test": "API-excipient compatibility, 1 month at 40° C. and 60° C.", "assay_type": "physicochemical", "details": "for % Deg. w/Main peak: 1 month 40° C.", "experimental": "For the pre-formulation work Compound 50 was mixed with varying ratios of excipients commonly encountered in topical formulations.\nThe Compound 50 Pre-Formulation Studies began with the addition of each individual excipient to 500 mg of the Active Pharmaceutical Ingredient (API). Table I below explains the detail ratio between each excipient and API used for this study.\nThe samples, once prepared in scintillation vials, were kept at 40° C. and 60° C. for over one month. The samples were analyzed by the method (not validated) developed by the analytical support group.\nThe results in Tables III-V were analyzed with respect to Compound 50 standard to calculate % recovery of API in the presence of each excipient. […] Similar results in table V for samples 5-60° C., 6-60° C., 7-60° C., 8-60° C., 10-60° C., 17-60° C., and 18-60° C. were obtained which needs to be further analyzed."}, "[3]": {"test": "Water solubility (statement)", "assay_type": "physicochemical"}, "CD83 and CD11c": {"system": "CD83 and CD11c", "details": "responders of Alefacept therapy; cited from earlier work"}, "[4]": {"details": "week 12, patients receiving 70 mg once a day"}},
  "note": "Entries after “also recorded” stand apart in the source; their conditions may differ.",
  "data": [
    {"molecule": "Cc1cccc(/C=N/Nc2cc(N3CCOCC3)nc(OCCc3ccccn3)n2)c1", "note": "[Compound 50, N-(3-Methyl-benzylidene)-N′-[6-morpholin-4-yl-2-(2-pyridin-2-yl-ethoxy)-pyrimidin-4-yl]-hydrazine]", "values": [
      {"measurement": "IL-10 mRNA", "setting": "IL-10", "result": "increase"},
      {"measurement": "IL-23 p19 gene expression", "setting": "IL-23 p19", "result": "reduced; also recorded: decrease"},
      {"measurement": "IL-12/23 p40 gene expression", "setting": "IL-12/23 p40", "result": "reduced; also recorded: decrease"},
      {"measurement": "CD11c+ cells in epidermis count", "setting": "[1]; all nonresponders, week 12", "result": "no significant reduction"},
      {"measurement": "decrease in CD11c+ cells in epidermis", "setting": "[1]; all responder patients (histological improvement at week 12)", "result": "~100", "unit": "%"},
      {"measurement": "CD11c+ cells in dermis (CD11DER)", "setting": "[1]; [4]", "result": "significant but less pronounced decreases"},
      {"measurement": "CD11c+ cells in epidermis (CD11EPI)", "setting": "[1]; [4]", "result": "marked decrease"},
      {"measurement": "CD3+ cells in dermis (CD3DER)", "setting": "CD3+ cells", "result": "significant but less pronounced decreases"},
      {"measurement": "CD3+ cells in epidermis (CD3EPI)", "setting": "CD3+ cells", "result": "significant but less pronounced decreases"},
      {"measurement": "% Deg. w/Main peak", "setting": "[2]; with Methylparaben, 1st impurity peak RRT 0.52", "result": 0.34, "unit": "%"},
      {"measurement": "w/Main Peak", "setting": "[2]; with Methylparaben, 1 month 60° C., impurity peak 0.51", "result": 13.75, "unit": "%"},
      {"measurement": "w/Main Peak", "setting": "[2]; with PEG-300, 1 month 60° C., impurity peak 0.60", "result": 0.51, "unit": "%"},
      {"measurement": "w/Main Peak", "setting": "[2]; with PEG-400, 1 month 60° C., impurity peak 0.60", "result": 1.87, "unit": "%"},
      {"measurement": "w/Main Peak", "setting": "[2]; with Polysorbate 80, 1 month 60° C., impurity peak 0.60", "result": 1.30, "unit": "%"},
      {"measurement": "w/Main Peak", "setting": "[2]; with Propylene Glycol, 1 month 60° C., impurity peak 0.60", "result": 0.11, "unit": "%"},
      {"measurement": "% Deg. w/Main peak", "setting": "[2]; with Propylparaben, 1st impurity peak RRT 0.78", "result": 8.96, "unit": "%"},
      {"measurement": "w/Main Peak", "setting": "[2]; with Propylparaben, 1 month 60° C., impurity peak 0.78", "result": 6.37, "unit": "%"},
      {"measurement": "w/Main Peak", "setting": "[2]; with Sorbitan Monooleate, 1 month 60° C., impurity peak 0.59", "result": 8.25, "unit": "%"},
      {"measurement": "water solubility", "setting": "[3]", "result": "not water soluble"}
    ]},
    {"molecule": "Alefacept", "values": [
      {"measurement": "CD83 and CD11c immunostaining", "setting": "CD83 and CD11c", "result": "decreases"}
    ]}
  ]
}
